# Measured values reported in paper PMC11204085, “Molecular Characterization of Chemosensory Protein (CSP) Genes and the Involvement of AgifCSP5 in the Perception of Host Location in the Aphid Parasitoid Aphidius gifuensis” (International Journal of Molecular Sciences, 2024).
# Entries after “also recorded” stand apart in the source; their conditions may differ. Like-named read-outs stand apart in the source and are kept apart here.
# What was measured:
# AgifCSP5 = AgifCSP5 (Aphidius gifuensis, UniProt A0A3Q9ELG9); assay: Fluorescence competitive binding assay with 1-NPN probe, wild-type AgifCSP5; settings: for Binding affinity in words: wild-type AgifCSP5
# AgifCSP5, sequence (A0A3Q9ELG9 entry or part of it): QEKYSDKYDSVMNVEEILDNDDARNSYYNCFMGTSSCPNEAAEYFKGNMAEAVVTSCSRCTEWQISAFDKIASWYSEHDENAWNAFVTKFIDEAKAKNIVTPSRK
# Description: (§1) The candidate VOCs were mainly derived from various organic volatiles in wheat field habitats, referring to the compounds related to wheat plants and wheat aphids previously reported in a published paper by Jiang et al. in 2022 and 2023 [11, 12], including four groups of ligands: (1) aphid alarm pheromone components; (2) aphid sex pheromone; (3) green leaf volatiles of wheat; and (4) aphid-induced plant volatiles. […] The classes, CAS numbers, and purities of the chemicals used in these assays are listed in Appendix B. A Lengguang 970CRT spectrofluorimeter (Shanghai Jingmi, Shanghai, China) equipped with a 1 cm light path fluorimeter quartz cuvette was used to record the fluorescence intensity at room temperature with the following parameters: the excitation wavelength was set at 337 nm, the emission light wavelength was recorded at 350–500 nm, the high-speed scan mode was used, and the slit width was 10 nm. To determine the binding affinity of 1-NPN for AgifCSP5 proteins, a 2 µM protein solution diluted with 50 mM Tris-HCl at pH 7.4 was titrated with aliquots of the 1 mM 1-NPN stock solution to final concentrations ranging from 2–40 μM. Ligands bound to AgifCSP5 have a protein:ligand ratio of 1:1. Three independent repeats were carried out for all measurements. The binding affinity of AgifCSP5 for all ligands was calculated by the formula Ki = [IC50]/(1 + [1 − NPN]/K1-NPN), where the IC50 is defined as the concentration of a competitor that caused a 50% reduction in fluorescence intensity, K1-NPN is the dissociation constant (Kd) of the AgifCSP5/1-NPN complex, and [1-NPN] is the free concentration of 1-NPN.
# R24A mutant of AgifCSP5 = R24A mutant of AgifCSP5 (Aphidius gifuensis, UniProt A0A3Q9ELG9, R44A); assay: Fluorescence competitive binding assay, R24A mutant
# R24A mutant of AgifCSP5, sequence (A0A3Q9ELG9 entry or part of it R44A): as the sequence (A0A3Q9ELG9 entry or part of it) above, with R24A counted along it
# Description: as §1
# (§2) The mutagenesis primers for the targeted key amino acid residues were designed online (https://crm.vazyme.com/cetool/singlepoint.html (accessed on 24 December 2023)) according to the protocols of the Mut Express II Fast Mutagenesis Kit V2 (Vazyme, China) (Appendix B). Mutations were obtained by using Phanta Max Superfidelity DNA Polymerase with recombinant Plasmid pET-30a/AgifCSP5 plasmid DNA as a template. The plasmids of the mutants were verified by DNA sequencing. The mutated proteins were then expressed and purified, as described above. After protein concentration determination, the binding affinities of the mutants with ligands that previously bound well to the AgifCSP5 protein were verified using fluorescence competitive binding assays.
# Y75A mutant of AgifCSP5 = Y75A mutant of AgifCSP5 (Aphidius gifuensis, UniProt A0A3Q9ELG9, Y95A); assay: Fluorescence competitive binding assay, Y75A mutant
# Y75A mutant of AgifCSP5, sequence (A0A3Q9ELG9 entry or part of it Y95A): as the sequence (A0A3Q9ELG9 entry or part of it) above, with Y75A counted along it
# Description: as §1, §2
# A. gifuensis adults = assay: Y-tube olfactometer assay; type: in vivo, Aphidius gifuensis
# Experimental: The behavioral responses of A. gifuensis to volatiles were tested using a Y-tube olfactometer (3.5 cm in diameter, arms 20 cm in length, and a stem 20 cm in length). The assay method was described by Guo et al., and minor improvements were made. The incoming air at a constant flow (300 mL/min) was first filtered using allochroic silica gel and activated carbon and then humidified with ultrapure water. The test compounds were serially diluted with paraffin oil to concentrations of 0.01, 0.1, 1, 10, and 100mg/mL. A total of 10 μL of tested volatile oil preloaded onto 1 cm diameter filter paper was placed in the chamber of the chosen treatment arm of the Y-tube olfactometer, and the same filter paper in another chamber of the chosen control arm was loaded with 10 μL of liquid paraffin. The choice of each adult introduced into the Y-tube stem within 5 min was recorded. The experiments were performed in a dark room at room temperature (25 ± 1 °C), and a light-emitting diode installed at 30 cm was used as the light source. In total, no fewer than 60 adults (at least 30 from each sex) were used in each treatment. After 5 insects were tested, we switched the positions of the volatile arm and the control arm, and after a total of 10 insects were tested, the Y-tube olfactometer was washed with 75% ethanol and air-dried.
# [1] = wild-type AgifCSP5, 1-NPN displacement, pH 7.4, read-out: IC50
# [2] = wild-type AgifCSP5, 1-NPN displacement, pH 7.4, read-out: Ki
structure (smiles),measurement,setting,value
CCCCCCCCCCCCCCCCCO [1-Heptadecanol],IC50,AgifCSP5,21.4 ± 1.07 µM
same,Ki,AgifCSP5,15.8 ± 0.79 µM
"c1ccc(Nc2cccc3ccccc23)cc1 [1-NPN, N-phenyl-1-naphthylamine, reference compound]",Kd,AgifCSP5,3.64 µM
same,Kd,R24A mutant of AgifCSP5,14.4 µM
same,Kd,Y75A mutant of AgifCSP5,3.13 µM
CC(=O)CCC=C(C)C [6-Methyl-5-hepten-2-one],IC50,AgifCSP5,24.5 ± 1.43 µM
same,Ki,AgifCSP5,18.2 ± 1.06 µM
CC1=CC[C@@H]2C[C@H]1C2(C)C [(1R)-(+)-α-Pinene],IC50,AgifCSP5,22.5 ± 2.42 µM
same,Ki,AgifCSP5,16.7 ± 1.79 µM
CC1=CCC(C(C)(C)O)CC1 (stereo not drawn) [(+)-α-Terpineol],IC50,AgifCSP5; [1],29.4 ± 1.6 µM
same,Ki,AgifCSP5; [2],21.8 ± 1.19 µM
C=CC(=C)CC/C=C(\C)CCC=C(C)C [(E)-β-Farnesene],Binding affinity in words,AgifCSP5,weakly binds
same,IC50,AgifCSP5; [1],25.9 ± 1.16 µM
same,Ki,AgifCSP5; [2],19.2 ± 0.86 µM
same,Binding affinity in words,AgifCSP5; listed as EBF,weak binding affinities
C=C(C)[C@H]1CC=C(C)CC1 [(R)-(+)-Limonene],IC50,AgifCSP5; [1],25.2 ± 4.06 µM
same,Ki,AgifCSP5; [2],18.7 ± 3.01 µM
C=C(C)[C@@H]1CC=C(C)C(=O)C1 [(R)-(−)-Carvone],IC50,AgifCSP5,23 ± 0.91 µM
same,Ki,AgifCSP5,17 ± 0.67 µM
C=C(C)[C@@H]1CC=C(C)CC1 [(S)-(−)-Limonene],IC50,AgifCSP5; [1],28.4 ± 2.84 µM
same,Ki,AgifCSP5; [2],21 ± 2.1 µM
C=C/C(C)=C\CC=C(C)C [(Z)-β-ocimene],IC50,AgifCSP5; [1],18 ± 2.89 µM
same,Ki,AgifCSP5; [2],13.3 ± 2.14 µM
same,IC50,"R24A mutant of AgifCSP5; R24A mutant, read-out: IC50",18.2 ± 1.97 µM
same,Ki,"R24A mutant of AgifCSP5; R24A mutant, read-out: Ki",16.7 ± 2.73 µM
same,IC50,"Y75A mutant of AgifCSP5; Y75A mutant, read-out: IC50",30.8 ± 7.87 µM
same,Ki,"Y75A mutant of AgifCSP5; Y75A mutant, read-out: Ki",21.9 ± 5.59 µM
same,Behavioral response in words,A. gifuensis adults; 100 mg/mL,significantly repelled; also recorded: repellent effects
same,Behavioral response in words,A. gifuensis adults; low concentrations,did not show any repelling or attracting activity
COc1cc(C(C)=O)cc(OC)c1O [Acetosyringone],IC50,AgifCSP5,36.9 ± 6.77 µM
same,Ki,AgifCSP5,27.3 ± 5.01 µM
O=Cc1ccccc1 [Benzaldehyde],IC50,AgifCSP5,18.2 ± 0.88 µM
same,Ki,AgifCSP5,13.5 ± 0.65 µM
same,IC50,R24A mutant of AgifCSP5,17.3 ± 3.62 µM
same,Ki,R24A mutant of AgifCSP5,15.8 ± 3.33 µM
same,IC50,Y75A mutant of AgifCSP5,> 40 µM
same,Behavioral response in words,A. gifuensis adults; 100 mg/mL,significantly repelled; also recorded: repellent effects; also recorded: strongly repelled
same,Behavioral response in words,A. gifuensis adults; low concentrations,did not show any repelling or attracting activity
OCc1ccccc1 [Benzyl alcohol],IC50,AgifCSP5,22.4 ± 4.58 µM
same,Ki,AgifCSP5,16.6 ± 3.39 µM
CC(=O)OC/C=C(\C)CCC=C(C)C [Geranyl acetate],IC50,AgifCSP5,27.3 ± 4.87 µM
same,Ki,AgifCSP5,20.2 ± 3.61 µM
CCCCCCCCCCCCCCCCCCCCC [Heneicosane],IC50,AgifCSP5,22.5 ± 2.42 µM
same,Ki,AgifCSP5,16.7 ± 1.79 µM
CC/C=C\CCO [Leaf alcohol],IC50,AgifCSP5; [1],27.9 ± 0.8 µM
same,Ki,AgifCSP5; [2],20.6 ± 0.59 µM
C=CC(C)(O)CCC=C(C)C (stereo not shown) [Linalool],IC50,AgifCSP5,25.5 ± 3.46 µM
same,Ki,AgifCSP5,18.9 ± 2.56 µM
CC/C=C\CC1C(=O)CCC1CC(=O)OC (stereo not shown) [Methyl jasmonate],IC50,AgifCSP5,20.1 ± 1.92 µM
same,Ki,AgifCSP5,14.9 ± 1.42 µM
same,IC50,R24A mutant of AgifCSP5,8.89 ± 0.95 µM
same,Ki,R24A mutant of AgifCSP5,8.16 ± 0.87 µM
same,"Binding affinity of R24A compared with wild type, in words",R24A mutant of AgifCSP5; R24A mutant,increased the binding affinity; also recorded: increased affinities
same,IC50,Y75A mutant of AgifCSP5,29.7 ± 1.06 µM
same,Ki,Y75A mutant of AgifCSP5,21.1 ± 0.75 µM
COC(=O)c1ccccc1O [Methyl salicylate],IC50,AgifCSP5,20.6 ± 3.58 µM
same,Ki,AgifCSP5,15.3 ± 2.65 µM
C=CC(=C)CCC=C(C)C [Myrcene],IC50,AgifCSP5,22.5 ± 2.51 µM
same,Ki,AgifCSP5,16.7 ± 1.86 µM
CC1=COC(=O)C2C(C)CCC12 (stereo not shown) [Nepetalactone],Binding affinity in words,AgifCSP5,weakly binds
same,IC50,AgifCSP5; [1],33.8 ± 6.81 µM
same,Ki,AgifCSP5; [2],25 µM
same,Binding affinity in words,AgifCSP5; listed as nephelactone,weak binding affinities
CCCCCCCCCCCCCCCCCCC [Nonadecane],IC50,AgifCSP5,38.9 ± 7.44 µM
same,Ki,AgifCSP5,28.8 ± 5.51 µM
C=C1CCC2(C(C)C)CC12 (stereo not shown) [Sabinene],IC50,AgifCSP5,16.4 ± 0.94 µM
same,Ki,AgifCSP5,12.1 ± 0.69 µM
same,IC50,R24A mutant of AgifCSP5,22.4 ± 14.6 µM
same,Ki,R24A mutant of AgifCSP5,20.6 ± 13.4 µM
same,IC50,Y75A mutant of AgifCSP5,26.2 ± 11.6 µM
same,Ki,Y75A mutant of AgifCSP5,18.6 ± 8.23 µM
same,Behavioral response in words,A. gifuensis adults; 10 mg/mL,significantly repelled only males
same,Behavioral response in words,A. gifuensis adults; 100 mg/mL,significantly repelled; also recorded: repellent effects
same,Behavioral response in words,A. gifuensis adults; low concentrations,did not show any repelling or attracting activity
CCCCCCCCCCCCCC=O [Tetradecanal],IC50,AgifCSP5,20.6 ± 2.11 µM
same,Ki,AgifCSP5,15.3 ± 1.57 µM
same,"Binding affinity of R24A compared with wild type, in words",R24A mutant of AgifCSP5; R24A mutant,increased the binding affinity
CCCCCCCCCCCCC [Tridecane],IC50,AgifCSP5,> 40 µM
CCC/C=C\CO [cis-2-Hexen-1-ol],IC50,AgifCSP5,34.5 ± 2.09 µM
same,Ki,AgifCSP5,25.6 ± 1.55 µM
CC/C=C\CCO [cis-3-Hexen-1-ol],IC50,AgifCSP5,23.4 ± 5.54 µM
same,Ki,AgifCSP5,17.3 ± 4.1 µM
CC/C=C\CC=O [cis-3-Hexenal],IC50,AgifCSP5,29.8 ± 1.55 µM
same,Ki,AgifCSP5,22 ± 1.15 µM
CC/C=C\CCOC(C)=O [cis-3-Hexenyl acetate],IC50,AgifCSP5,24.5 ± 0.49 µM
same,Ki,AgifCSP5,18.2 ± 0.36 µM
CCCC/C=C\CCO [cis-3-Octen-1-ol],IC50,AgifCSP5,17 ± 1.08 µM
same,Ki,AgifCSP5,12.6 ± 0.8 µM
same,IC50,R24A mutant of AgifCSP5,18.9 ± 9.83 µM
same,Ki,R24A mutant of AgifCSP5,17.4 ± 9.03 µM
same,IC50,Y75A mutant of AgifCSP5,22.9 ± 6.68 µM
same,Ki,Y75A mutant of AgifCSP5,16.3 ± 4.75 µM
same,Behavioral response in words,A. gifuensis adults; 10 mg/mL,significantly repelled only males
same,Behavioral response in words,A. gifuensis adults; 100 mg/mL,significantly repelled; also recorded: repellent effects
same,Behavioral response in words,A. gifuensis adults; low concentrations,did not show any repelling or attracting activity
CCC/C=C/C=O [trans-2-Hexen-1-al],IC50,AgifCSP5,18.1 ± 1.18 µM
same,Ki,AgifCSP5,13.4 ± 0.87 µM
same,IC50,R24A mutant of AgifCSP5,15 ± 8.09 µM
same,Ki,R24A mutant of AgifCSP5,13.8 ± 7.43 µM
same,IC50,Y75A mutant of AgifCSP5,14.6 ± 5.42 µM
same,Ki,Y75A mutant of AgifCSP5,10.4 ± 3.85 µM
same,Behavioral response in words,A. gifuensis adults; 10 mg/mL,obviously repelled
same,Behavioral response in words,A. gifuensis adults; 100 mg/mL,significantly repelled; also recorded: repellent effects
same,Behavioral response in words,"A. gifuensis adults; 100 mg/mL, listed as trans-2-hexenal",strongly repelled
same,Behavioral response in words,A. gifuensis adults; low concentrations,did not show any repelling or attracting activity
CCCCCC/C=C/C=O [trans-2-Nonenal],IC50,AgifCSP5,16.6 ± 1.78 µM
same,Ki,AgifCSP5,12.3 ± 1.31 µM
same,IC50,R24A mutant of AgifCSP5,25.9 ± 16.4 µM
same,Ki,R24A mutant of AgifCSP5,23.7 ± 15 µM
same,IC50,Y75A mutant of AgifCSP5,> 40 µM
same,Behavioral response in words,A. gifuensis adults; 10 mg/mL,significantly attracted only female adults; also recorded: attractive
same,Behavioral response in words,A. gifuensis adults; 100 mg/mL,significantly repelled
